The assay deals with P388 leukemia ip, CD2F1 mice, survival T/C. Briefly: NCI In Vivo Anticancer Drug Screen. Data for tumor model P388 Leukemia (intraperitoneal) in CD2F1 (CDF1) mice. Conditions: endpoint: median survival time, higher = longer survival. The gist of the method:
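Mice carrying the transplanted tumor received test compound or vehicle. Survival was recorded in each group, and the value is the treated-group measurement divided by that of the vehicle-treated control group.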

Setting [1] is: dose: 50.0 mg/kg/injection, schedule: Q01DX005 (ip), vehicle: saline with Tween-80.
The mark [2] stands for this setting: dose: 100.0 mg/kg/injection, schedule: Q01DX005 (ip), vehicle: saline with Tween-80.
Where [3] appears, read: dose: 200.0 mg/kg/injection, schedule: Q01DX005 (ip), vehicle: saline with Tween-80.
Where [4] appears, read: dose: 12.5 mg/kg/injection, schedule: Q01DX009 (ip), vehicle: saline.
[5] abbreviates: dose: 60.0 mg/kg/injection, schedule: Q01DX005 (ip), vehicle: saline with Tween-80.
Setting [6] is: dose: 120.0 mg/kg/injection, schedule: Q01DX005 (ip), vehicle: saline with Tween-80.
[7] abbreviates: dose: 240.0 mg/kg/injection, schedule: Q01DX005 (ip), vehicle: saline with Tween-80.
The mark [8] stands for this setting: dose: 50.0 mg/kg/injection, schedule: Q01DX005 (ip), vehicle: Klucel (hydroxypropylcellulose) (HPC).
[9] abbreviates: dose: 100.0 mg/kg/injection, schedule: Q01DX005 (ip), vehicle: Klucel (hydroxypropylcellulose) (HPC).
[10] abbreviates: dose: 200.0 mg/kg/injection, schedule: Q01DX005 (ip), vehicle: Klucel (hydroxypropylcellulose) (HPC).

Molecules are shown by their SMILES. Where “and” joins values, the source holds several entries; their conditions need not be identical. Equal entries are not always repeated. Inconclusive results and toxic doses are left out.

Turning to `CN(C)CCCN1CN(CCCN(C)C)CN(CCCN(C)C)C1`, the T/C runs as follows: (dose: 50.0 mg/kg/injection, schedule: Q01DX005 (ip), vehicle: saline) 99 % of control; (dose: 100.0 mg/kg/injection, schedule: Q01DX005 (ip), vehicle: saline) 103 % of control.

Take `Cc1cc(C)nc(N/N=C\c2c(Cl)cccc2Cl)n1`: the T/C (dose: 50.0 mg/kg/injection, schedule: Q04DX003 (ip), vehicle: Klucel (hydroxypropylcellulose) (HPC)) was 100 % of control; the T/C (dose: 100.0 mg/kg/injection, schedule: Q04DX003 (ip), vehicle: Klucel (hydroxypropylcellulose) (HPC)) was 98 % of control; the T/C (dose: 200.0 mg/kg/injection, schedule: Q04DX003 (ip), vehicle: Klucel (hydroxypropylcellulose) (HPC)) was 94 % of control.

Turning to `COc1cccc2c1C(=O)c1c(O)c3c(c(O)c1C2=O)CC(O)(C(C)O)CC3OC1CCN(c2ccccc2)CC(C)O1` (configuration not stated), the T/C is, setting by setting: (dose: 3.13 mg/kg/injection, schedule: Q04DX003 (ip), vehicle: distilled water + Tween-80) 103 % of control; (dose: 6.25 mg/kg/injection, schedule: Q04DX003 (ip), vehicle: distilled water + Tween-80) 100 % of control; (dose: 12.5 mg/kg/injection, schedule: Q04DX003 (ip), vehicle: distilled water + Tween-80) 108 % of control; (dose: 25.0 mg/kg/injection, schedule: Q04DX003 (ip), vehicle: distilled water + Tween-80) 105 % of control; (dose: 50.0 mg/kg/injection, schedule: Q04DX003 (ip), vehicle: distilled water + Tween-80) 104 % of control; (dose: 100.0 mg/kg/injection, schedule: Q04DX003 (ip), vehicle: distilled water + Tween-80) 105 % of control. Besides, the T/C reads like this: (dose: 200.0 mg/kg/injection, schedule: Q04DX003 (ip), vehicle: distilled water + Tween-80) 124 % of control; (dose: 400.0 mg/kg/injection, schedule: Q04DX003 (ip), vehicle: distilled water + Tween-80) 101 % of control.

As for `COCN(C)N=Nc1ccc(Br)cc1`, the T/C is, setting by setting: under setting [1], 95 % of control; under setting [2], 103 % of control; under setting [3], 102 % of control.

Regarding `Cc1c(CNc2ccc(C(=O)NC(CC(=O)O)C(=O)O)cc2)ccc2nc(N)nc(N)c12` (configuration not stated), the T/C is, setting by setting: (dose: 12.5 mg/kg/injection, schedule: Q04DX003 (ip), vehicle: saline with Tween-80) 159 % of control; (dose: 16.5 mg/kg/injection, schedule: Q04DX003 (ip), vehicle: saline with Tween-80) 200 % of control.

Take `CCCCCCN(CCCCCC)CC(O)c1ccc(Br)c2ccccc12` (configuration not stated): the T/C runs as follows: under setting [1], 93 % of control; under setting [2], 93 % of control; under setting [3], 88 % of control.

As for `O/N=C/C=N/O.O/N=C/C=N/O.[Ni]`, the T/C is 100 % of control (dose: 0.78 mg/kg/injection, schedule: Q01DX009 (ip), vehicle: saline); 98 % of control (dose: 1.56 mg/kg/injection, schedule: Q01DX009 (ip), vehicle: saline); 91 % of control (dose: 3.13 mg/kg/injection, schedule: Q01DX009 (ip), vehicle: saline); 97 % of control (dose: 6.25 mg/kg/injection, schedule: Q01DX009 (ip), vehicle: saline); 100 % of control under setting [4].

For the compound `CCc1c2cc3c(cc2cc2c4cc5c(cc4cc[n+]12)OCO5)OCO3` (tested in a mixture with another compound), the T/C is 117 % of control (dose: 0.5 mg/kg/injection, schedule: Q01DX009 (ip), vehicle: Klucel (hydroxypropylcellulose) (HPC)); 121 % of control (dose: 1.0 mg/kg/injection, schedule: Q01DX009 (ip), vehicle: Klucel (hydroxypropylcellulose) (HPC)); 153 % of control and 174 % of control (dose: 5.0 mg/kg/injection, schedule: Q01DX009 (ip), vehicle: Klucel (hydroxypropylcellulose) (HPC)).

On to `O=c1c2cc3ccccc3n2c(=O)c2cc3ccccc3n12`, for which the T/C by setting is: (dose: 50.0 mg/kg/injection, schedule: Q01DX009 (ip), vehicle: Klucel (hydroxypropylcellulose) (HPC)) 87 % of control; (dose: 100.0 mg/kg/injection, schedule: Q01DX009 (ip), vehicle: Klucel (hydroxypropylcellulose) (HPC)) 91 % of control; (dose: 200.0 mg/kg/injection, schedule: Q01DX009 (ip), vehicle: Klucel (hydroxypropylcellulose) (HPC)) 92 % of control.

`COc1cc2c(cc1OC)C(C)P(C)(=O)CC2=O` (configuration not stated): the T/C runs as follows: under setting [1], 96 % of control and 99 % of control; under setting [2], 102 % of control and 101 % of control; under setting [3], 102 % of control and 99 % of control.

With `Cc1cc(C)n(C(=N)/C(C#N)=N/N(C)c2ccccc2)n1`, the T/C was 100 % of control (dose: 25.0 mg/kg/injection, schedule: Q04DX002 (ip), vehicle: saline with Tween-80); 93 % of control (dose: 50.0 mg/kg/injection, schedule: Q04DX002 (ip), vehicle: saline with Tween-80); 90 % of control (dose: 100.0 mg/kg/injection, schedule: Q04DX002 (ip), vehicle: saline with Tween-80).

Take `CCCCCCCCCCOC(=O)CC(C)=O.CCCCCCCCCCOC(=O)CC(C)=O.[Ni+2]`: the T/C was 98 % of control under setting [4]; 100 % of control (dose: 25.0 mg/kg/injection, schedule: Q01DX009 (ip), vehicle: saline); 98 % of control and 91 % of control (dose: 50.0 mg/kg/injection, schedule: Q01DX009 (ip), vehicle: saline); 86 % of control (dose: 100.0 mg/kg/injection, schedule: Q01DX009 (ip), vehicle: saline).

On to `CCOC(=O)c1c(NC(=S)NC)sc(C)c1C`, for which the T/C was 106 % of control (dose: 50.0 mg/kg/injection, schedule: Q01DX009 (ip), vehicle: saline with Tween-80); 89 % of control (dose: 100.0 mg/kg/injection, schedule: Q01DX009 (ip), vehicle: saline with Tween-80); 106 % of control (dose: 200.0 mg/kg/injection, schedule: Q01DX009 (ip), vehicle: saline with Tween-80).

For `COC(=O)c1nc(N)nc(C(=O)OC)c1C(=O)/C=C/c1ccccc1`, the T/C reads like this: under setting [5], 100 % of control; under setting [6], 98 % of control.

In the case of `NC(C(=O)O)C(CC(=O)O)c1ccc(O)cc1` (configuration not stated), the T/C reads like this: (dose: 50.0 mg/kg/injection, schedule: Q01DX007 (ip), vehicle: saline) 100 % of control; (dose: 100.0 mg/kg/injection, schedule: Q01DX007 (ip), vehicle: saline) 100 % of control; (dose: 200.0 mg/kg/injection, schedule: Q01DX007 (ip), vehicle: saline) 101 % of control.

`COc1ccc(CSc2nn(CCC#N)c(=O)[nH]c2=O)cc1`: the T/C reads like this: under setting [1], 95 % of control; under setting [2], 97 % of control; under setting [3], 94 % of control.

In the case of `O=C(CNC(=O)Nc1cccc([N+](=O)[O-])c1)NNC(=O)Nc1ccccc1F`, the T/C reads like this: under setting [5], 101 % of control; under setting [6], 101 % of control; under setting [7], 99 % of control.

As for `O=C(Nc1ccccc1)P(=S)(c1ccccc1)c1ccccc1`, the T/C under setting [8] is 101 % of control and 112 % of control; the T/C under setting [9] is 104 % of control; the T/C under setting [10] is 101 % of control and 106 % of control.

Turning to `OCCNC(Cc1ccccc1)c1c(O)ccc2ccccc12` (configuration not stated), the T/C by setting is: under setting [8], 100 % of control; under setting [9], 94 % of control; under setting [10], 100 % of control.

With `CN=C(NCCCOC)c1ccc(NC(=O)c2ccc(C(=O)Nc3ccc(C(=NC)NCCCOC)cc3)cc2)cc1`, the T/C by setting is: (dose: 5.0 mg/kg/injection, schedule: Q01DX009 (ip), vehicle: saline) 118 % of control; (dose: 5.0 mg/kg/injection, schedule: Q04DX003 (ip), vehicle: saline) 100 % of control; (dose: 10.0 mg/kg/injection, schedule: Q01DX009 (ip), vehicle: saline) 122 % of control; (dose: 10.0 mg/kg/injection, schedule: Q04DX003 (ip), vehicle: saline) 100 % of control; (dose: 20.0 mg/kg/injection, schedule: Q01DX009 (ip), vehicle: saline) 90 % of control; (dose: 20.0 mg/kg/injection, schedule: Q04DX003 (ip), vehicle: saline) 95 % of control.

On to `Cn1c2cc([N+](=O)[O-])ccc2c(=O)c2c(O)cc(O)cc21`, for which the T/C was 101 % of control (dose: 100.0 mg/kg/injection, schedule: Q01DX001 (ip), vehicle: saline with Tween-80); 92 % of control (dose: 200.0 mg/kg/injection, schedule: Q01DX001 (ip), vehicle: saline with Tween-80); 104 % of control (dose: 400.0 mg/kg/injection, schedule: Q01DX001 (ip), vehicle: saline with Tween-80).

In the case of `COc1ccc(OC)c(NC(=O)CCCC(=O)C(C#N)c2nc3ccccc3s2)c1` (configuration not stated), the T/C reads like this: under setting [5], 105 % of control; under setting [6], 108 % of control; under setting [7], 100 % of control.

With `COc1ccc(S(=O)(=O)F)cc1NC(=O)Oc1ccccc1`, the T/C is 105 % of control under setting [5], 113 % of control under setting [6] and 111 % of control under setting [7].

Source of the values: PubChem BioAssay AID330 (DTP/NCI, 2004).
